From ChEMBL document CHEMBL3627642 (Bioorg Med Chem, 2015)

What was measured:
[1] = Inhibition of thrombin-induced rabbit platelet aggregation after 4 hrs in presence of rabbit liver microsomes; set-up: species or system Oryctolagus cuniculus
Rattus norvegicus = test: Antithrombotic activity in Sprague-Dawley rat venous thrombosis model assessed as reduction of thrombus weight administered intragastrically qd for 3 days measured 2 hrs after last dose; assay type: functional, organism-based
Mus musculus = test: Toxicity in mouse assessed as bleeding time at 22 mg/kg, po administered 90 mins before surgery measured up to 15 mins by tail bleeding test; assay type: organism-based; settings: in vivo
Prothrombin = Prothrombin (Homo sapiens, UniProt P00734); test: Inhibition of human thrombin using tosyl-glycyl-prolyl-arginine-4-nitranilide acetate as substrate preincubated for 10 mins by spectrophotometer analysis

| IC50 [1] [nM] | IC50 (Prothrombin) [nM] | SMILES | Activity (Rattus norvegicus) | Activity (Mus musculus) |
| --- | --- | --- | --- | --- |
| 860 |  | CCOC(=O)CCN(C(=O)c1ccc2c(c1)nc1n2CCN(C(=O)OC(C)C)C1Cc1ccc(/C(N)=N/C(=O)OC(C)C)cc1)c1ccccc1 (stereo not given) | Dose-dependent effect |  |
| 27200 |  | CCCCCOC(=O)/N=C(\N)c1ccc(CC2NCCn3c2nc2cc(C(=O)N(CCC(=O)OCC)c4ccccn4)ccc23)cc1 (stereo not given) |  |  |
| 840 |  | CCOC(=O)CCN(C(=O)c1ccc2c(c1)nc1n2CCNC1Cc1ccc(/C(N)=N/C(=O)OCC(C)C)cc1)c1ccccn1 (stereo not given) |  |  |
| 870 |  | CCOC(=O)CCN(C(=O)c1ccc2c(c1)nc1n2CCNC1Cc1ccc(/C(N)=N/C(=O)OC(C)C)cc1)c1ccccn1 (stereo not given) |  |  |
| 8720 |  | CCOC(=O)CCN(C(=O)c1ccc2c(c1)nc1n2CCN(C(=O)OCC(C)C)C1Cc1ccc(/C(N)=N/C(=O)OCC(C)C)cc1)c1ccccn1 (stereo not given) |  |  |
| 750 |  | CCCCCCOC(=O)/N=C(\N)c1ccc(CC2c3nc4cc(C(=O)N(CCC(=O)OCC)c5ccccn5)ccc4n3CCN2C(=O)OCCCCCC)cc1 (stereo not given) | Dose-dependent effect | Non-toxic |
| 5960 |  | CCOC(=O)CCN(C(=O)c1ccc2c(c1)nc1n2CCNC1Cc1ccc(/C(N)=N/C(=O)OCc2ccccc2)cc1)c1ccccn1 (stereo not given) |  |  |
| 3320 |  | CCOC(=O)CCN(C(=O)c1ccc2c(c1)nc1n2CCNC1Cc1ccc(/C(N)=N/C(=O)OC(C)(C)C)cc1)c1ccccn1 (stereo not given) |  |  |
| 730 |  | CCCCCCOC(=O)/N=C(\N)c1ccc(CC2NCCn3c2nc2cc(C(=O)N(CCC(=O)OCC)c4ccccn4)ccc23)cc1 (stereo not given) | Dose-dependent effect | Toxic |
| 1440 |  | CCCCCCOC(=O)/N=C(\N)c1ccc(CC2NCCn3c2nc2cc(C(=O)N(CCC(=O)OCC)c4ccccc4)ccc23)cc1 (stereo not given) | Dose-dependent effect | Non-toxic |
| 13800 |  | CCOC(=O)CCN(C(=O)c1ccc2c(c1)nc1n2CCN(C(=O)OC(C)(C)C)C1Cc1ccc(/C(N)=N/C(=O)OC(C)(C)C)cc1)c1ccccn1 (stereo not given) |  |  |
| 3420 |  | CCOC(=O)CCN(C(=O)c1ccc2c(c1)nc1n2CCN(C(=O)OCC)C1Cc1ccc(/C(N)=N/C(=O)OCC)cc1)c1ccccn1 (stereo not given) |  |  |
| 640 |  | CCCCCCOC(=O)/N=C(\N)c1ccc(CC2NCCn3c2nc2cc(C(=O)N(CCC(=O)OCc4nc(C)c(C)nc4C)c4ccccn4)ccc23)cc1 (stereo not given) | Dose-dependent effect | Non-toxic |
| 1210 |  | CCCCCCOC(=O)/N=C(\N)c1ccc(CC2NCCn3c2nc2cc(C(=O)N(CCC(=O)OCc4nc(C)c(C)nc4C)c4ccccc4)ccc23)cc1 (stereo not given) | Dose-dependent effect | Toxic |
| 1520 |  | CCOC(=O)CCN(C(=O)c1ccc2c(c1)nc1n2CCN(C(=O)OC(C)C)C1Cc1ccc(/C(N)=N/C(=O)OC(C)C)cc1)c1ccccn1 (stereo not given) |  |  |
|  | 7.48 | N=C(N)c1ccc(CC2NCCn3c2nc2cc(C(=O)N(CCC(=O)O)c4ccccc4)ccc23)cc1 (stereo not given) |  |  |
| 600 | 9.2 | N=C(N)c1ccc(CC2NCCn3c2nc2cc(C(=O)N(CCC(=O)O)c4ccccn4)ccc23)cc1 (stereo not given) |  |  |
| 17900 |  | CCCCCOC(=O)/N=C(\N)c1ccc(CC2c3nc4cc(C(=O)N(CCC(=O)OCC)c5ccccn5)ccc4n3CCN2C(=O)OCCCCC)cc1 (stereo not given) |  |  |
| 9660 |  | CCOC(=O)CCN(C(=O)c1ccc2c(c1)nc1n2CCN(C(=O)OCc2ccccc2)C1Cc1ccc(/C(N)=N/C(=O)OCc2ccccc2)cc1)c1ccccn1 (stereo not given) |  |  |
| 340 |  | CCCCCCOC(=O)NC(=N)c1ccc(NCc2nc3cc(C(=O)N(CCC(=O)OCC)c4ccccn4)ccc3n2C)cc1 [DABIGATRAN ETEXILATE] | Dose-dependent effect |  |
| 910 |  | CCCCCCOC(=O)/N=C(\N)c1ccc(CC2c3nc4cc(C(=O)N(CCC(=O)OCC)c5ccccc5)ccc4n3CCN2C(=O)OCCCCCC)cc1 (stereo not given) | Dose-dependent effect | Non-toxic |
| 1540 |  | CCOC(=O)CCN(C(=O)c1ccc2c(c1)nc1n2CCNC1Cc1ccc(/C(N)=N/C(=O)OC(C)C)cc1)c1ccccc1 (stereo not given) | Dose-dependent effect | Toxic |
| 4090 |  | CCOC(=O)CCN(C(=O)c1ccc2c(c1)nc1n2CCNC1Cc1ccc(/C(N)=N/C(=O)OCC)cc1)c1ccccn1 (stereo not given) |  |  |
